The values that follow are results of earlier work, collected in patent publication US12071516B2, “Polymeric stabilizing formulations” (Nano Precision Medical, Inc., priority 2014, dated 2024).

Structures are written as SMILES.

As for `OCCN1CCN(CCCN2c3ccccc3Sc3ccc(C(F)(F)F)cc32)CC1` [Fluphenazine], the water solubility result is recorded as “limited water solubility”.
